Measured values from patent US10035790B2, “RORγ modulators” (BRISTOL-MYERS SQUIBB COMPANY, priority 2012, dated 2018).
pIC50: −log10 of the molar value.

Target: T1, ligand binding domain of human RORγ (A262-S507) (Homo sapiens, UniProt P51449)
T1 construct: made in house; host or cells: E. coli
T1 sequence (P51449 262-507): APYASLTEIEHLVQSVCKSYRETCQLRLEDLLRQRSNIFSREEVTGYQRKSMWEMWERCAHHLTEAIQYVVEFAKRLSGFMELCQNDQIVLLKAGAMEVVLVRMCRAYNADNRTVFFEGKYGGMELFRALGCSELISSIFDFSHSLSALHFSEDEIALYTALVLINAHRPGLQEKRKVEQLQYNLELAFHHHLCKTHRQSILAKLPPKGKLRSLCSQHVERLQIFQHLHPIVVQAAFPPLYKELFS
Assay: General RORγ SPA binding assay (competition with [3H]25-hydroxycholesterol)
Conditions: IC50, RORγ SPA binding assay, inhibition of [3H]25-hydroxycholesterol binding
In short: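 Step one: compound meets 50 nM nickel-purified, His-tagged protein from E. coli for 15 min at room temperature (PBS, 0.5% fatty acid free BSA). Step two: radioligand is added for another 15 min. Step three: SPA beads are added for 30 min before scintillation reading and IC50 fitting.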

Structure (SMILES) | pIC50
CC(O)(COc1ccnc(C(F)(F)F)n1)c1cnc(N)nc1C1CCN(C(=O)Oc2c(F)cccc2F)CC1 (stereo not drawn) [Compound D46, 2,6-Difluorophenyl 4-[2-amino-5-(1-hydroxy-1-methyl-2-{[2-(trifluoromethyl)pyrimidin-4-yl]oxy}ethyl)pyrimidin-4-yl]piperidine-1-carboxylate] | 8.20

Same assay, conditions: RORγ SPA binding assay, inhibition of [3H]25-hydroxycholesterol binding; read-out: IC50

Structure (SMILES) | pIC50
Cc1ncc(C(=O)NCc2cccc(C(F)(F)F)n2)c(C2CCN(C(=O)Cc3c(F)cccc3F)CC2)n1 [Compound A44, 4-(1-(2-(2,6-difluorophenyl)acetyl)piperidin-4-yl)-2-methyl-N-((6-(trifluoromethyl)pyridin-2-yl)methyl)pyrimidine-5-carboxamide] | 8.24
C/C(=N\Oc1cccc(C)c1)c1cnc(C)nc1C1CCN(C(=O)Cc2c(F)cccc2F)CC1 [Compound B11, (E)-2-(2,6-difluorophenyl)-1-(4-(2-methyl-5-(1-((m-tolyloxy)imino)ethyl)pyrimidin-4-yl)piperidin-1-yl)ethanone] | 8.77
Cc1ncc(C(=O)COc2cccc(Cl)c2)c(C2CCN(C(=O)Cc3c(F)cccc3F)CC2)n1 [Compound M1, 2-(3-Chlorophenoxy)-1-(4-(1-(2-(2,6-difluorophenyl)acetyl)piperidin-4-yl)-2-methylpyrimidin-5-yl)ethanone] | 7.59
Cc1nc(C)c(-c2nnc(-c3cc(Cl)ccn3)o2)c(C2CCN(C(=O)Cc3c(F)cccc3F)CC2)n1 [Compound C21, 1-(4-(5-(5-(4-chloropyridin-2-yl)-1,3,4-oxadiazol-2-yl)-2,6-dimethylpyrimidin-4-yl)piperidin-1-yl)-2-(2,6-difluorophenyl)ethanone] | 5.52
CC(C)Nc1ncc(C(=O)NCc2cccc(Cl)c2)c(C2CCN(C(=O)Cc3c(F)cccc3F)CC2)n1 [Compound A94, N-(3-chlorobenzyl)-4-(1-(2-(2,6-difluorophenyl)acetyl)piperidin-4-yl)-2-(isopropylamino)pyrimidine-5-carboxamide] | 7.60
Cc1ncc(C2(COc3cccc(C(F)(F)F)n3)CCO2)c(C2CCN(C(=O)Nc3c(F)cccc3F)CC2)n1 (stereo not drawn) [Compound N51, N-(2,6-Difluorophenyl)-4-{2-methyl-5-[2-({[6-(trifluoromethyl)pyridin-2-yl]oxy}methyl)oxetan-2-yl]pyrimidin-4-yl}piperidine-1-carboxamide] | 8.31
Cc1ncc(C(=O)NCc2cccc(Cl)c2F)c(C2CCN(C(=O)Cc3c(F)cccc3F)CC2)n1 [Compound A54, N-(3-chloro-2-fluorobenzyl)-4-(1-(2-(2,6-ditluorophenyl)acetyl)piperidin-4-yl)-2-methylpyrimidine-5-carboxamide] | 7.86
CCC/C(=N/Oc1cccc(C(F)(F)F)c1)c1c(C)nc(C)nc1C1CCN(C(=O)Cc2c(F)cccc2F)CC1 [Compound B49, (1Z)-1-(4-{1-[(2,6-difluorophenyl)acetyl]piperidin-4-yl}-2,6-dimethylpyrimidin-5-yl)butan-1-one O-[3-(trifluoromethyl)phenyl]oxime] | 5.71
C/C(=N\Oc1ccnc(C(F)(F)F)c1)c1cnc(N(C)C)nc1C1CCN(C(=O)Nc2c(F)cccc2F)CC1 [Compound B61, N-(2,6-Difluorophenyl)-4-{2-(dimethylamino)-5-[(1E)-N-{[2-(trifluoromethyl)pyridin-4-yl]oxy}ethanimidoyl]pyrimidin-4-yl}piperidine-1-carboxamide] | 6.44
Cc1nc(N)nc(C2CCN(C(=O)Oc3c(F)cccc3F)CC2)c1-c1nnc(-c2ccnc(C(F)(F)F)n2)o1 [Compound C50, 2,6-Difluorophenyl 4-(2-amino-6-methyl-5-{5-[2-(trifluoromethyl)pyrimidin-4-yl]-1,3,4-oxadiazol-2-yl}pyrimidin-4-yl)piperidine-1-carboxylate] | 8.21
Cc1ncc(C(=O)COc2cccc(C(F)(F)F)n2)c(C2CCN(C(=O)Nc3c(F)cccc3F)CC2)n1 [Compound M4, N-(2,6-Difluorophenyl)-4-[2-methyl-5-({[6-(trifluoromethyl)pyridin-2-yl]oxy}acetyl)pyrimidin-4-yl]piperidine-1-carboxamide] | 8.19
